Counter-ions that a name gives are not always drawn.
System: adults with ADHD
Test: not given
Conditions: person, ADHD; 37.5 mg oxycarbamazepine added to dexamphetamine 40 mg and 'sodium to operate' 400 mg daily
Description: In the clinical setting a number of adults with ADHD experienced a combination therapy of stimulant medication (dexamphetamine) in combination with sodium valproate (VPA). The initial dosages used were from 15 to 70 mg/day of dexamphetamine and from 100 to 700 mg/day of VPA (Epilim) (=approximately 2 to 10 mg/kg/day).
The determination of the dose for the dexamphetamine was undertaken in a clinical sensitive open label manner. The dose was titrated upwards dependent on the clinical response and the freedom from side-effects. The dose range was between 15 and 70 mg a day. The frequency of the dosing also varied dependent upon the clinical response. The usual dose interval was between two to four hours. This dosing adjustment took place prior to the commencement of the sodium valproate. The sodium valproate medication was initiated once a day at 50 mg tablet or elixir and titrated upwards dependent on response, but not more than one increase every three days. The dose was given as a once or twice a day regime. During the titration phase, if clinically possible, no other adjustments to the pharmacotherapy were undertaken.

SMILES | clinical outcome (case)
NC(=O)N1c2ccccc2CC(=O)c2ccccc21 [Oxcarbazepine] | significant improvement in their cognitive functioning

Same assay, conditions: person; oxycarbamazepine dose increased to 75 mg

SMILES | clinical outcome (case)
NC(=O)N1c2ccccc2CC(=O)c2ccccc21 [Oxcarbazepine] | improved again

Same assay, conditions: person; switched to carbamazepine

SMILES | clinical outcome (case), compared with oxycarbamazepine
NC(=O)N1c2ccccc2C=Cc2ccccc21 [Carbamazepine] | less effective

System: mood stabilisation or epileptic symptoms or events
Test: not given
Conditions: in vivo; cited from earlier work

SMILES | typical dose for treating epileptic seizures
NC(=O)N1c2ccccc2C=Cc2ccccc21 [Carbamazepine] | 400 to 800 mg/day

Same assay, conditions: usual minimum anti-convulsant dose per day; cited from earlier work

SMILES | Minimum Dose/day effective for mood stabilisation or treatment of epileptic symptoms or events
Cc1ccsc1C(=CCCN1CCC[C@@H](C(=O)O)C1)c1sccc1C [Tiagabine Hydrochloride] | 30 mg
O=C1NC(c2ccccc2)(c2ccccc2)C(=O)N1COP(=O)(O)O [Fosphenytoin Sodium] | 10 mg/kg
O=C1CN=C(c2ccccc2Cl)c2cc([N+](=O)[O-])ccc2N1 [Clonazepam] | 1 mg
NCC1(CC(=O)O)CCCCC1 [Gabapentin, 2-[1-(aminomethyl)cyclohexyl]acetic acid] | 900 mg
CCC1(c2ccccc2)NC(=O)N(C)C1=O (stereo not shown) [Methoin] | 1000 mg
CCC(C(=O)NC(N)=O)c1ccccc1 (stereo not shown) [Pheneturide] | 600 mg
COC1=CC(=O)OC1C(O)c1ccccc1Cl (stereo not shown) [Losigamone] | 1500 mg
NC(=O)N1c2ccccc2C=Cc2ccccc21 [Carbamazepine] | 400 mg
COC[C@@H](NC(C)=O)C(=O)NCc1ccccc1 [Lacosamide] | 200 mg
NC(=O)OCC(COC(N)=O)c1ccccc1 [Felbamate] | 1200 mg
CC[C@@H](C(N)=O)N1CCCC1=O [Levetiracetam] | 1000 mg
CN1C(=O)OC(C)(C)C1=O [Trimethadione] | 900 mg
CN1C(=O)CC(c2ccccc2)C1=O (stereo not shown) [Phensuximide] | 1000 mg
C=CC(N)CCC(=O)O (stereo not shown) [Vigabatrin] | 1000 mg
Nc1nnc(-c2cccc(Cl)c2Cl)c(N)n1 [Lamotrigine, 3,5-diamino-6-(2,3-dichlorophenyl)-1,2,4-triazine] | 100 mg
CCC1(c2ccccc2)NC(=O)N(C)C1=O (stereo not shown) [Mephenytoin] | 200 mg

SMILES | Minimum Dose/day effective for mood stabilisation or treatment of epileptic symptoms or events
CCC1(C)OC(=O)N(C)C1=O (stereo not shown) [Paramethadione] | 300 mg
CCC1(c2ccc(N)cc2)CCC(=O)NC1=O (stereo not shown) [Aminoglutethimide] | 125 mg
NC(=O)N1c2ccccc2CC(=O)c2ccccc21 [Oxcarbazepine] | 600 mg
CN1C(=O)CC(C)(c2ccccc2)C1=O (stereo not shown) [Methsuximide] | 300 mg
CCC[C@@H]1CC(=O)N([C@@H](CC)C(N)=O)C1 [Brivaracetam] | 100 mg
CCC1(c2ccccc2)C(=O)NCNC1=O [Primidone] | 750 mg
CCN1C(=O)NC(c2ccccc2)C1=O (stereo not shown) [Ethotoin] | 1000 mg
NS(=O)(=O)Cc1noc2ccccc12 [Zonisamide] | 200 mg
N#Cc1ccccc1-c1cc(-c2ccccn2)cn(-c2ccccc2)c1=O [Perampanel] | 2 mg
NC(=O)NC(=O)Cc1ccccc1 [Phenacemide] | 500 mg
CCC1(C)CC(=O)NC1=O (stereo not shown) [Ethosuximide] | 1000 mg
CCN1C(=O)OC(C)(C)C1=O [Ethadione] | 1000 mg
NS(=O)(=O)c1ccc(N2CCCCS2(=O)=O)cc1 [Sultiame] | 200 mg
CC(C)C[C@H](CN)CC(=O)O [Pregabalin, (S)-3-(aminomethyl)-5-methylhexanoic acid] | 300 mg
CCC1(c2ccccc2)C(=O)NC(=O)NC1=O.CNC(C)CC1CCCCC1 [Barbexaclone] | 200 mg in divided doses

Same assay, conditions: usual minimum anti-convulsant dose; cited from earlier work

SMILES | Minimum Dose/day effective for mood stabilisation or treatment of epileptic symptoms or events
CN1C(=O)CC(=O)N(c2ccccc2)c2cc(Cl)ccc21 [Clobazam] | 5 mg/kg daily

System: individuals with developmental dyspraxia / poor coordination
Test: Treatment of developmental dyspraxia, clinical observation
Assay type: in vivo, human
Conditions: person, ADHD; dexamphetamine 25 mg daily augmented with atomexetine 60 mg and sodium valproate 150 mg
Description: Many of the individuals treated at this clinic, with a diagnosis of ADHD and/or pervasive development disorder such Asperger's Syndrome or autism also present with symptoms consistent with a diagnosis of a developmental coordination disorder. They are often described as ‘unco’ (unco-ordinated) by their peers and experience victimization, poor self-esteem and frustration as a consequence of their poor coordination. […] Individuals have described a sense of having more time to coordinate movements and to understand and integrate their own activity appropriately within a team sport such as soccer, which has previously eluded them. Individuals have felt frustration at being able to practise repeatedly an activity or skill only to be unable to put it into practice when required, within the play of a match. It is proposed that individuals were previously unable to process and plan their own coordination but remain aware of the general activity in which they were participating.

SMILES | clinical outcome (case)
CNCC[C@@H](Oc1ccccc1C)c1ccccc1 [atomexetine, (3R)—N-methyl-3-(2-methylphenoxy)-3-phenyl-propan-1-amine] | Significant improvement in psychosocial functioning

From US10028971B2, “Compositions and methods for treating psychiatric disorders” (GOSFORTH CENTRE (HOLDINGS) PTY LTD., priority 2008, dated 2018)
